In patent US20150105252A1, “SUBSTITUTED PYRAZOLES AS HERBICIDES” (E I DU PONT DE NEMOURS AND COMPANY, priority 2013, published 2015):

Legend:
[1] = test system: foxtail, giant; assay: Test A preemergence; format: in vivo, Setaria faberii; details: preemergence; for Foxtail, Giant plant response rating (0 to 100 scale): visual injury approx. 10 days after treatment
How it was run: (§1)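 Both timings tested concurrently in loam/sand soil: preemergence by directed soil spray, postemergence on plants of 2–10 cm at the one- to two-leaf stage. Greenhouse holding period was approximately 10 days before visual injury assessment (0–100, 0 = no effect).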

[2] = test system: pigweed; assay: Test A preemergence; format: in vivo, Amaranthus retroflexus; details: preemergence; for Pigweed plant response rating (0 to 100 scale): visual injury approx. 10 days after treatment
How it was run: as §1

[3] = test system: velvetleaf; assay: Test A preemergence; format: in vivo, Abutilon theophrasti; details: preemergence; for Velvetleaf plant response rating (0 to 100 scale): visual injury approx. 10 days after treatment
How it was run: as §1

[4] = test system: wheat; assay: Test A preemergence; format: in vivo, Triticum aestivum; details: preemergence; for Wheat plant response rating (0 to 100 scale): visual injury approx. 10 days after treatment
How it was run: as §1

[5] = test system: barnyardgrass; assay: Test B flood; format: in vivo, Echinochloa crus-galli; details: 250 g ai/ha, visual rating on 0 to 100 scale (0 no effect, 100 complete control), 13 to 15 days
How it was run: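 Greenhouse assay lasting 13 to 15 days. Treatment was into water flooding pots 3 cm deep, at the 2-leaf stage, with that level sustained afterwards. Scores compare treated with control plants visually, 100 denoting complete control and 0 no effect; a dash marks no test result.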

[6] = test system: blackgrass; assay: Test C preemergence; format: in vivo, Alopecurus myosuroides
How it was run: (§2)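 Scores of 0 (no effect) to 100 (complete control) were assigned by eye after 13–15 days, comparing treated pots with controls. Soil-applied (preemergence) treatments went onto seeds in loam and sand; foliar (postemergence) treatments onto 1- to 4-leaf plants in peat medium.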

[7] = test system: johnsongrass; assay: Test C preemergence; format: in vivo, Sorghum halepense
How it was run: as §2

[8] = test system: lambsquarters; assay: Test C preemergence; format: in vivo, Chenopodium album
From the text: Seeds of plant species selected from blackgrass (Alopecurus myosuroides), ryegrass, Italian (Italian ryegrass, Lolium multiflorum), wheat (winter wheat, Triticum aestivum), galium (catchweed bedstraw, Galium aparine), corn (Zea mays), crabgrass, large (large crabgrass, Digitaria sanguinalis), foxtail, giant (giant foxtail, Setaria faberii), johnsongrass (Sorghum halepense), lambsquarters (Chenopodium album), morningglory (Ipomoea coccinea), nutsedge, yellow (yellow nutsedge, Cyperus esculentus), pigweed (redroot pigweed, Amaranthus retroflexus), ragweed (common ragweed, Ambrosia elation), soybean (Glycine max), barnyardgrass (Echinochloa crus-galli), oilseed rape (Brassica napus), waterhemp (common waterhemp, Amaranthus rudis), oat, wild (wild oat, Avena fatua), kochia (Kochia scoparia), Surinam grass (Brachiaria decumbens), foxtail, green (green foxtail, Setaria viridis), goosegrass (Eleusine indica), bromegrass, downy (downy bromegrass, Bromus tectorum), nightshade (eastern black nightshade, Solanum ptycanthum), cocklebur (common cocklebur, Xanthium strumarium), cupgrass, woolly (woolly cupgrass, Eriochloa villosa), bermudagrass (Cynodon dactylon), sunflower, (common oilseed sunflower, Helianthus annuus), Russian thistle (Salsola kali), and velvetleaf (Abutilon theophrasti) were planted into a blend of loam soil and sand and treated preemergence with test chemicals formulated in a non-phytotoxic solvent mixture which included a surfactant.
At the same time, plants selected from these crop and weed species and also chickweed (common chickweed, Stellaria media), canarygrass (littleseed canarygrass, Phalaris minor), and deadnettle (henbit deadnettle, Lamium amplexicaule), were planted in pots containing Redi-Earth® planting medium (Scotts Company, 14111 Scottslawn Road, Marysville, Ohio 43041) comprising spaghnum peat moss, vermiculite, wetting agent and starter nutrients and treated with postemergence applications of test chemicals formulated in the same manner. Plants ranged in height from 2 to 18 cm (1- to 4-leaf stage) for postemergence treatments. Treated plants and controls were maintained in a greenhouse for 13 to 15 days, after which time all species were compared to controls and visually evaluated. Plant response ratings, summarized in Table C, are based on a scale of 0 to 100 where 0 is no effect and 100 is complete control. A dash (-) response means no test result.

[9] = test system: pigweed; assay: Test C preemergence; format: in vivo, Amaranthus retroflexus
How it was run: as §2

[10] = 125 g ai/ha, visual injury, 0 to 100 scale, approx. 10 days
[11] = 500 g ai/ha, visual injury after approx. 10 days, 0 to 100 scale (0 no effect, 100 complete control)
[12] = Preemergence, 4 g ai/ha, scale 0 to 100
[13] = Preemergence, 8 g ai/ha, scale 0 to 100
[14] = Preemergence, 16 g ai/ha, scale 0 to 100
[15] = preemergence, 31 g ai/ha, visual rating, scale 0 to 100 (0 no effect, 100 complete control), 13 to 15 days
[16] = preemergence, 62 g ai/ha, scale 0 to 100 (0 no effect, 100 complete control), 13 to 15 days
[17] = preemergence, 125 g ai/ha, 13 to 15 days, scale 0 to 100, 0 = no effect, 100 = complete control
[18] = preemergence, 250 g ai/ha, scale 0 to 100, 0 is no effect, 100 is complete control

Structure (SMILES)	Foxtail, Giant plant response rating [1, 11]	Pigweed plant response rating [2, 11]	Velvetleaf plant response rating [3, 11]	Wheat plant response rating [4, 11]	Plant response rating, Barnyardgrass [5]	Blackgrass plant response rating [6, 15]	Johnsongrass plant response rating [7, 15]	Lambsquarters plant response rating [8, 15]	Pigweed plant response rating [9, 15]	Foxtail, Giant plant response rating (0 to 100 scale) ([1]; 125 g ai/ha)	Pigweed plant response rating (0 to 100 scale) ([2]; 125 g ai/ha)	Velvetleaf plant response rating (0 to 100 scale) ([3]; 125 g ai/ha)	Wheat plant response rating (0 to 100 scale) ([4]; 125 g ai/ha)	Blackgrass plant response rating [6, 16]	Plant response rating, Blackgrass [6, 17]	Johnsongrass plant response rating [7, 16]	Plant response rating, Johnsongrass [7, 17]	Lambsquarters plant response rating [8, 16]	Plant response rating, Lambsquarters [8, 17]	Pigweed plant response rating [9, 16]	also measured
CCOc1cc(C(=O)NCC(F)(F)F)nn1Cc1cc(C(F)(F)F)nn1C [Compound 140]	100	100	100	100	55	50	25	75	100												Foxtail, Giant plant response rating [1, 10]: 100; Pigweed plant response rating [2, 10]: 100; Velvetleaf plant response rating [3, 10]: 60; Wheat plant response rating [4, 10]: 70; Plant response rating, Blackgrass [6, 12]: 0; Plant response rating, Blackgrass [6, 13]: 0; Plant response rating, Blackgrass [6, 14]: 5; Plant response rating, Johnsongrass [7, 12]: 20; Plant response rating, Johnsongrass [7, 13]: 5; Plant response rating, Johnsongrass [7, 14]: 5; Plant response rating, Lambsquarters [8, 12]: 5; Plant response rating, Lambsquarters [8, 13]: 55; Plant response rating, Lambsquarters [8, 14]: 40; Plant response rating, Pigweed [9, 12]: 80; Plant response rating, Pigweed [9, 13]: 100; Plant response rating, Pigweed [9, 14]: 100
O=C(NCC(F)(F)F)c1cc(CCF)n(Cc2ccnc(C(F)(F)F)c2)n1 [Compound 175]	100	100	100	100	35	30	0	98	100	100	100	40	20	90	90	35	70	100	100	100	Blackgrass plant response rating [6, 18]: 90; Johnsongrass plant response rating [7, 18]: 100; Lambsquarters plant response rating [8, 18]: 100; Plant response rating, Pigweed [9, 17]: 100; Pigweed plant response rating [9, 18]: 100
O=C(NC1CC1)c1cc(CCF)n(Cc2ccnc(C(F)(F)F)c2)n1 [Compound 176]	100	100	90	90	35	5	0	80	100	90	100	50	20	5	90	20	65	98	100	100	Blackgrass plant response rating [6, 18]: 90; Johnsongrass plant response rating [7, 18]: 85; Lambsquarters plant response rating [8, 18]: 100; Plant response rating, Pigweed [9, 17]: 100; Pigweed plant response rating [9, 18]: 100
CCNC(=O)c1cc(CCF)n(Cc2ccnc(C(F)(F)F)c2)n1 [Compound 178]	100	100	90	30	20	5	0	80	100	90	100	30	0	30	85	5	25	100	100	100	Plant response rating, Blackgrass [6, 14]: 0; Plant response rating, Johnsongrass [7, 14]: 0; Plant response rating, Lambsquarters [8, 14]: 65; Plant response rating, Pigweed [9, 14]: 45; Plant response rating, Pigweed [9, 17]: 100
CCCc1cc(C(=O)NOC(C)C)nn1Cc1cc(C(F)(F)F)nn1C [Compound 203]	100				25	30	0	75	100	80	100	30	80	50	85	0	40	100	100	100	Blackgrass plant response rating [6, 18]: 90; Johnsongrass plant response rating [7, 18]: 55; Lambsquarters plant response rating [8, 18]: 100; Plant response rating, Pigweed [9, 17]: 100; Pigweed plant response rating [9, 18]: 100
